According to patent US20230357162A1, “COMPOUNDS, COMPOSITIONS AND METHODS” (Denali Therapeutics Inc., priority 2020, published 2023):

Test system: IL-1β secretion, THP-1 cells
Assay: IL-1β secretion assay in PMA-differentiated THP-1 cells stimulated with LPS and nigericin (ELISA readout)
Type: cell-based
Details: Homo sapiens, THP-1, inhibition of IL-1β secretion, 25 ng/mL LPS then nigericin
Summary of the method: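 THP-1 cells differentiated with 5 ng/mL PMA for 40 h, primed in serum-free medium with 25 ng/mL LPS for 2 h, then compound (0.5% DMSO) for 1 h before nigericin for 2 h at 37°C. Supernatant IL-1β quantified by ELISA; normalized to high (LPS + 5 µM nigericin) and low (LPS only) controls.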

Row | IC50 (class column of Table 3) | IC50 (numeric column of Table 3) | SMILES
1 | < 10 µM | 0.737 µM | CC(C)c1nn(CC(=O)NC23CC(F)(C2)C3)c(=O)c2ccc(Br)cc12 [Example 118, 2-(6-bromo-1-oxo-4-propan-2-ylphthalazin-2-yl)-N-(3-fluoro-1-bicyclo[1.1.1]pentanyl)a cetamide]
2 | < 10 µM | 0.876 µM | CC(c1nn(CC(=O)Nc2ncncc2F)c(=O)c2ccc(Br)cc12)C(F)(F)F (stereo not drawn) [Example 17, 2-[6-bromo-1-oxo-4-(1,1,1-trifluoropropan-2-yl)phthalazin-2-yl]-N-(5-fluoropyrimidin-4-yl)acetamide]
3 | < 10 µM | 0.035 µM | CC(C)c1nn(CC(=O)Nc2ncc(F)cn2)c(=O)c2ccc(Br)cc12 [Example 113, 2-(6-bromo-1-oxo-4-propan-2-ylphthalazin-2-yl)-N-(5-fluoropyrimidin-2-yl)acetamide]
4 | < 10 µM | 1.7 µM | CC(C)c1nn(CC(=O)Nc2ccnn2C)c(=O)c2ccc(Br)cc12 [Example 49, 2-(6-bromo-1-oxo-4-propan-2-ylphthalazin-2-yl)-N-(2-methylpyrazol-3-yl)acetamide]
5 | < 10 µM | 0.519 µM | CC(C)c1nn(CC(=O)Nc2ccc(Cl)nc2)c(=O)c2ccc(Br)cc12 [Example 30, 2-(6-bromo-1-oxo-4-propan-2-ylphthalazin-2-yl)-N-(6-chloropyridin-3-yl)acetamide]
6 | < 10 µM | 2.32 µM | CC(F)(F)c1nn(CC(=O)Nc2ncncc2F)c(=O)c2ccc(Br)cc12 [Example 13, 2-[6-bromo-4-(1,1-difluoroethyl)-1-oxophthalazin-2-yl]-N-(5-fluoropyrimidin-4-yl)acetamide]
7 | < 10 µM | 0.689 µM | O=C(Cn1nc(C(F)F)c2cc(C(F)(F)F)ccc2c1=O)Nc1ncc(F)cn1 [Example 25, 2-[4-(difluoromethyl)-1-oxo-6-(trifluoromethyl)phthalazin-2-yl]-N-(5-fluoropyrimidin-2-yl)acetamide]
8 | > 15 µM | > 50 µM | CC(C)c1nn(CC(=O)NCC2CCCN2C(=O)OC(C)(C)C)c(=O)c2ccc(Br)cc12 (stereo not drawn) [Example 107, tert-butyl 2-[[[2-(6-bromo-4-isopropyl-1-oxo-phthalazin-2-yl)acetyl]amino]methyl]pyrrolidine-1-carboxylate]
9 | < 10 µM | 1.03 µM | CC(C)c1nn(CC(=O)Nc2ccnn2C2COC2)c(=O)c2ccc(Br)cc12 [Example 67, 2-(6-bromo-1-oxo-4-propan-2-ylphthalazin-2-yl)-N-[2-(oxetan-3-yl)pyrazol-3-yl]acetamide]
10 | < 10 µM | 5.95 µM | CC(C)Oc1nn(CC(=O)Nc2ncc(F)cn2)c(=O)c2ccc(Br)cc12 [Example 155, 2-(6-bromo-1-oxo-4-propan-2-yloxyphthalazin-2-yl)-N-(5-fluoropyrimidin-2-yl)acetamide]
11 | < 10 µM | 3.66 µM | CC(C)c1nn(C(C)C(=O)Nc2ncncc2F)c(=O)c2ccc(Br)cc12 (stereo not drawn) [Example 14, 2-(6-bromo-1-oxo-4-propan-2-ylphthalazin-2-yl)-N-(5-fluoropyrimidin-4-yl)propanamide]
12 | < 10 µM | 0.213 µM | O=C(Cn1nc(OC2CC2)c2cc(Br)ccc2c1=O)N[C@@H]1CCCN(C2CCC2)C1 [Example 177]
13 | < 10 µM | 1.77 µM | CC(C)c1nn(CC(=O)Nc2ncc(F)cc2C#N)c(=O)c2ccc(Br)cc12 [Example 114, 2-(6-bromo-1-oxo-4-propan-2-ylphthalazin-2-yl)-N-(3-cyano-5-fluoropyridin-2-yl)acetamide]
14 | < 10 µM | 0.461 µM | COc1nn(CC(=O)Nc2ncc(F)cn2)c(=O)c2ccc(C(F)(F)F)cc12 [Example 146, N-(5-fluoropyrimidin-2-yl)-2-[4-methoxy-1-oxo-6-(trifluoromethyl)phthalazin-2-yl]acetamide]
15 | < 10 µM | 1.27 µM | O=C(Cn1nc(C(F)(F)F)c2cc(Br)ccc2c1=O)Nc1ncncc1F [Example 131, 2-[6-bromo-1-oxo-4-(trifluoromethyl)phthalazin-2-yl]-N-(5-fluoropyrimidin-4-yl)acetamide]
16 | < 10 µM | 0.382 µM | CC(C)c1nn(CC(=O)Nc2ncncc2F)c(=O)c2cc(F)c(Br)cc12 [Example 85, 2-(6-bromo-7-fluoro-1-oxo-4-propan-2-ylphthalazin-2-yl)-N-(5-fluoropyrimidin-4-yl)acetamide]

Row | IC50 (class column of Table 3) | IC50 (numeric column of Table 3) | SMILES
17 | < 10 µM | 0.127 µM | O=C(Cn1nc(OC2CC2)c2cc(Br)ccc2c1=O)Nc1ncc(F)cn1 [Example 150, 2-(6-bromo-4-cyclopropyloxy-1-oxophthalazin-2-yl)-N-(5-fluoropyrimidin-2-yl)acetamide]
18 | < 10 µM | 0.138 µM | CC(C)c1nn(CC(=O)Nc2ncncc2F)c(=O)c2ccc(C(F)(F)F)nc12 [Example 24, N-(5-fluoropyrimidin-4-yl)-2-[5-oxo-8-propan-2-yl-2-(trifluoromethyl)pyrido[2,3-d]pyridazin-6-yl]acetamide]
19 | < 10 µM | 9.04 µM | CC(C)c1nn(CC(=O)NC(C)c2ccccc2)c(=O)c2ccc(Br)cc12 (stereo not drawn) [Example 72, 2-(6-bromo-1-oxo-4-propan-2-ylphthalazin-2-yl)-N-(1-phenylethyl)acetamide]
20 | < 10 µM | 0.12 µM | O=C(Cn1nc(OC2CC2)c2cc(C3CC3)ccc2c1=O)Nc1ncc(F)cn1 [Example 173, 2-(6-cyclopropyl-4-cyclopropyloxy-1-oxophthalazin-2-yl)-N-(5-fluoropyrimidin-2-yl)acetamide]
21 | < 10 µM | 0.235 µM | CC(C)c1nn(CC(=O)Nc2ccncc2F)c(=O)c2ccc(Br)cc12 [Example 8, 2-(6-Bromo-4-isopropyl-1-oxophthalazin-2(1H)-yl)-N-(3-fluoropyridin-4-yl)acetamide]
22 | 10 to 15 µM | 10.7 µM | CC(c1ccc2c(=O)n(CC(=O)Nc3ncncc3F)nc(Br)c2c1)C(F)(F)F (stereo not drawn) [Example 18, 2-[4-bromo-1-oxo-6-(1,1,1-trifluoropropan-2-yl)phthalazin-2-yl]-N-(5-fluoropyrimidin-4-yl)acetamide]
23 | < 10 µM | 3.74 µM | CC(C)c1nn(CC(=O)NCC2CCOCC2)c(=O)c2ccc(Br)cc12 [Example 74, 2-(6-bromo-1-oxo-4-propan-2-ylphthalazin-2-yl)-N-(oxan-4-ylmethyl)acetamide]
24 | < 10 µM | 0.349 µM | CC(C)c1nn(CC(=O)NC2CC3(COC3)C2)c(=O)c2ccc(Br)cc12 [Example 54, 2-(6-bromo-1-oxo-4-propan-2-ylphthalazin-2-yl)-N-(2-oxaspiro[3.3]heptan-6-yl)acetamide]
25 | < 10 µM | 3.35 µM | CC(C)c1nn(CC(=O)NC2CCC(F)(F)C2)c(=O)c2ccc(Br)cc12 (stereo not drawn) [Example 42, 2-(6-bromo-1-oxo-4-propan-2-ylphthalazin-2-yl)-N-(3,3-difluorocyclopentyl)acet amide]
26 | < 10 µM | 0.307 µM | N#Cc1cnc(NC(=O)Cn2nc(C(F)F)c3c(F)c(Br)ccc3c2=O)c(F)c1 [Example 28, 2-[6-bromo-4-(difluoromethyl)-5-fluoro-1-oxophthalazin-2-yl]-N-(5-cyano-3-fluoropyridin-2-yl)acetamide]
27 | > 15 µM | 32 µM | CC(F)c1nn(CC(=O)Nc2ncccn2)c(=O)c2cc(Br)ccc12 (stereo not drawn) [Example 81, 2-[7-bromo-4-(1-fluoroethyl)-1-oxo-phthalazin-2-yl]-N-pyrimidin-2-yl-acetamide]
28 | < 10 µM | 1.28 µM | CC(C)c1nn(CC(=O)Nc2cncc(F)c2)c(=O)c2ccc(Br)cc12 [Example 122, 2-(6-bromo-1-oxo-4-propan-2-ylphthalazin-2-yl)-N-(5-fluoropyridin-3-yl)acetamide]
29 | < 10 µM | 3.85 µM | CO[C@H]1C[C@@H](NC(=O)Cn2nc(C(C)C)c3cc(Br)ccc3c2=O)C1 [Example 77, 2-(6-bromo-1-oxo-4-propan-2-ylphthalazin-2-yl)-N-(3-cis-methoxycyclobutyl)acet amide]
30 | < 10 µM | 0.121 µM | CC(C)c1nn(CC(=O)Nc2ncncc2F)c(=O)c2ccc(Br)cc12 [Example 6, 2-(6-Bromo-4-isopropyl-1-oxophthalazin-2(1H)-yl)-N-(5-fluoropyrimidin-4-yl)acetamide]
31 | > 15 µM | > 50 µM | O=C(Cn1nc(OC(F)(F)F)c2ccc(Br)cc2c1=O)Nc1ncncc1F [Example 83, 2-[7-Bromo-1-Oxo-4-(Trifluoromethoxy)Phthalazin-2-yl]-N-(5-Fluoropyrimidin-4-yl)Acetamide]
32 | < 10 µM | 0.03 µM | CC(C)c1nn(CC(=O)N[C@H]2C[C@@](C)(O)C2)c(=O)c2ccc(Br)cc12 [Example 1, 2-(6-Bromo-4-isopropyl-1-oxophthalazin-2(1H)-yl)-N-(cis-3-hydroxy-3-methylcyclobutyl)acetamide]

Row | SMILES | IC50 (class column of Table 3) | IC50 (numeric column of Table 3)
33 | C[C@H]1C[C@H](Oc2nn(CC(=O)Nc3ncc(F)cn3)c(=O)c3ccc(Br)cc23)C1 [Example 158, 2-[6-bromo-4-(3-trans-methylcyclobutoxy)-1-oxo-phthalazin-2-yl]-N-(5-fluoropyrimidin-2-yl)acetamide] | < 10 µM | 0.309 µM
